Measured values from PMC7501296, “Rapid and direct control of target protein levels with VHL-recruiting dTAG molecules” (Nature Communications, 2020).
Where “and” joins values, the source holds several entries; their conditions need not be identical. Equal entries are not always repeated.

What was measured:
Assay type in all cases: cell-based
[1] = system: FKBP12^F36V-EWS/FLI; experiment: Immunoblot of EWS502 FKBP12F36V-EWS/FLI; EWS/FLI-/- cells
Description: (§1) To generate 293T^WT FKBP12^F36V-KRAS^G12V and 293T^VHL−/− FKBP12^F36V-KRAS^G12V cells, concentrated lentiviral supernatants[6] were applied to 293T^WT and 293T^VHL−/− cells[33] in the presence of 4 µg mL^−1 polybrene and transduced cell lines were selected with 2 µg mL^−1 puromycin. To generate EWS502 FKBP12^F36V-GFP cells, EWS502 cells were transduced with pLEX_305-dTAG-GFP lentiviral supernatant and selected with 1 µg mL^−1 puromycin. To generate EWS502 FKBP12^F36V-EWS/FLI; EWS/FLI^−/− cells, EWS502 cells were co-transduced with pLEX_305-dTAG-EWS/FLI and lentiCRISPR v2-Blast-sgFLI_Ex9 lentiviral supernatants. Cells were then selected with both 1 µg mL^−1 puromycin (pLEX_305-dTAG-EWS/FLI) and 5 µg mL^−1 blasticidin (lentiCRISPR v2-Blast-sgFLI_Ex9). Knockout of endogenous EWS/FLI and the expression of exogenous FKBP12^F36V-EWS/FLI were confirmed by immunoblot and pooled transduced cell populations were employed for this study. PATU-8902 LACZ-FKBP12^F36V and FKBP12^F36V-KRAS^G12V; KRAS^−/− clones were also employed in this study.
(§2) PATU-8902 LACZ-FKBP12^F36V and FKBP12^F36V-KRAS^G12V; KRAS^−/− cells and 293T cells were lysed with RIPA buffer supplemented with cOmplete protease inhibitors (Roche), PhosSTOP phosphatase inhibitors (Roche), and 0.1% benzonase (Novagen). Proteins were separated using NuPAGE Bolt^TM Bis–Tris gels (Thermo Fisher Scientific) and transferred to nitrocellulose membranes, which were blocked with Odyssey Blocking Buffer (LI-COR) and incubated with primary antibodies overnight. Membranes were washed three times with TBS-T, incubated with the appropriate fluorescently labeled infrared secondary antibodies, washed again three times with TBS-T, and assessed using an Odyssey CLx Imager (LI-COR)[6],[15]. EWS502 cells were lysed with Cell Lysis Buffer (Cell Signaling Technology) supplemented with cOmplete protease inhibitors (Roche). Proteins were separated using SDS-PAGE gels and transferred to PVDF membranes, which were blocked with 5% milk in TBS-T and incubated with primary antibodies overnight. Membranes were washed five times with TBS-T, incubated with the appropriate horseradish peroxidase-conjugated secondary antibodies, washed again five times with TBS-T, and imaged. […]

[2] = molecular target: T1, FKBP12^F36V-GFP (Homo sapiens, UniProt P62942, F37V); experiment: Immunoblot of EWS502 FKBP12F36V-GFP cells; conditions: 24 h
T1 construct: expressed in transfected cells; host or cells: EWS502 (lentiviral pLEX_305-dTAG-GFP)
Description: as §1, with “PATU-8902 LACZ-FKBP12^F36V and FKBP12^F36V-KRAS^G12V; KRAS^−/− clones were also employed in this study.” left out
PATU-8902 LACZ-FKBP12^F36V and FKBP12^F36V-KRAS^G12V; KRAS^−/− cells and 293T cells were lysed with RIPA buffer supplemented with cOmplete protease inhibitors (Roche), PhosSTOP phosphatase inhibitors (Roche), and 0.1% benzonase (Novagen). […] Membranes were washed three times with TBS-T, incubated with the appropriate fluorescently labeled infrared secondary antibodies, washed again three times with TBS-T, and assessed using an Odyssey CLx Imager (LI-COR)[6],[15]. […]

[3] = system: EWS502 FKBP12^F36V-EWS/FLI; EWS/FLI^−/− cells; experiment: Relative growth of EWS502 FKBP12F36V-EWS/FLI; EWS/FLI-/- cells (CellTiter-Glo); conditions: for Relative growth (luminescence values relative to day 0): EWS502 FKBP12F36V-EWS/FLI, EWS/FLI-/-; for Antiproliferation (relative growth): replicate values; for Antiproliferative effects upon EWS/FLI degradation: longer time-points
Description: Cell viability was assayed in 2D-adherent or ultra-low adherent 3D-spheroids using CellTiter-Glo (Promega)[6],[15]. Luminescence was measured on an Envision 2104 plate reader (PerkinElmer) and Fluostar Omega Reader (BMG Labtech) and data was analyzed using GraphPad PRISM v8. Synergy assessments were performed using CellTiter-Glo (Promega) with the following modifications to the protocol described in the ref. [34]. In brief, EWS502 cells were plated at 1000 cells per well in 50 µL of appropriate media in 384-well white culture plates (Corning) allowed to adhere overnight, and 100 nL of compounds were added using a Janus Workstation pin tool (PerkinElmer) for 72 h. Cell viability was measured by addition of 10 µL of CellTiter-glo (Promega), followed by incubation for 15 minutes at room temperature. Luminescence was measured on an Envision 2104 plate reader (PerkinElmer) and data was analyzed using GraphPad PRISM v8.

[4] = molecular target: T2, CDK9 (Homo sapiens, UniProt P50750); experiment: Immunoblot, co-treatment with THAL-SNS-032 and/or dTAGV-1 in PATU-8902 LACZ-FKBP12F36V clone
T2 construct: endogenous in cells; host or cells: PATU-8902 LACZ-FKBP12^F36V clone
Description: as §2, with “imaged. The following primary antibodies were employed in this study: HA (Cell Signaling Technology #3724 and #2367, dilution at 1:1000), phospho-ERK1/2 T202/Y204 (Cell Signaling Technology #4370, dilution at 1:1000), ERK1/2 (Cell Signaling Technology #4696, dilution at 1:1000), phospho-AKT S473 (Cell Signaling Technology #4060, dilution at 1:1000), AKT (Cell Signaling Technology #2920, dilution at 1:1000), FKBP12 (Abcam #ab24373, dilution at 1:1000), GFP (Cell Signaling Technology #2555, dilution at 1:1000), FLI (Abcam #ab15289, dilution at 1:2000), NKX2-2 (Abcam #ab187375, dilution at 1:1000), GAPDH (Cell Signaling Technology #2118, dilution at 1:3000), Vinculin (Cell Signaling Technology #13901, dilution at 1:3000), β-Actin (Cell Signaling Technology #58169, dilution at 1:3000), and α-Tubulin (Cell Signaling Technology #3873, dilution at 1:5000).” for “imaged.”

T1 sequence (P62942 2-108 F37V limits assumed): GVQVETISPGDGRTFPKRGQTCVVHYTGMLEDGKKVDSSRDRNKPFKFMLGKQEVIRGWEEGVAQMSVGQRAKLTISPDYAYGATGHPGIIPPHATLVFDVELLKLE

Compound	FKBP12F36V-EWS/FLI degradation, immunoblot ([1]; EWS502 FKBP12F36V-EWS/FLI, EWS/FLI-/- cells)	Time of treatment at which FKBP12F36V-EWS/FLI degradation was evident ([1]; EWS502 cells) [h]	FKBP12F36V-GFP degradation, immunoblot [2]	Relative growth (luminescence values relative to day 0) ([3]; day 0, technical replicates)	Relative growth (luminescence values relative to day 0) ([3]; day 3, technical replicates)	Relative growth (luminescence values relative to day 0) ([3]; day 5, technical replicates)	Relative growth (luminescence values relative to day 0) ([3]; day 7, technical replicates)	Antiproliferation (relative growth) ([3]; Time 0 days)	Antiproliferation (relative growth) ([3]; Time 3 days)	Antiproliferation (relative growth) ([3]; Time 5 days)	Antiproliferation (relative growth) ([3]; Time 7 days)	Antiproliferative effects upon EWS/FLI degradation [3]	Degradation of both LACZ-FKBP12F36V and CDK9 on co-treatment ([4]; co-treatment dTAGV-1 + THAL-SNS-032, 24 h)	CDK9 protein levels ([4]; dTAGV-1 alone, 24 h)
CC[C@H](C(=O)N1CCCC[C@H]1C(=O)O[C@H](CCc1ccc(OC)c(OC)c1)c1ccccc1OCC(=O)NCCCCCCC(=O)N[C@H](C(=O)N1C[C@H](O)C[C@H]1C(=O)N[C@@H](C)c1ccc(-c2scnc2C)cc1)C(C)(C)C)c1cc(OC)c(OC)c(OC)c1 [dTAG^V-1]	only susceptible to degradation upon treatment with dTAG^V-1	≤ 1	effectively degraded	0.8696 and 1.038 (2×) and 1.097 and 0.9086 and 1.006 and 0.975 and 1.069	3.17 and 3.081 and 3.35 and 3.515 and 3.02 and 3.212 and 3.235 and 3.093	3.571 and 3.881 and 3.894 and 3.809 and 3.6579 and 3.634 and 3.713 and 3.678	4.1 and 3.846 and 4.015 and 4.459 and 4.182 and 3.984 and 3.963 and 4.228	1.031 and 1.006 and 0.9491 and 0.9896 and 1.023 and 0.9889 and 1.015 and 0.9988	3.562 and 3.604 and 3.659 and 3.498 and 3.439 and 4 and 3.9346 and 3.855	4.651 and 4.613 and 4.429 and 4.423 and 4.852 and 4.574 and 4.874 and 4.602	4.558 and 4.146 and 4.393 and 4.598 and 4.588 and 4.347 and 4.317 and 4.895	Potent antiproliferative effects	pronounced degradation	did not alter
CCC(C(=O)N1CCCCC1C(=O)OC(CCc1ccc(OC)c(OC)c1)c1ccccc1OCC(=O)NCCCCCCC(=O)NC(C(=O)N1CC(O)CC1C(=O)NC(C)c1ccc(-c2scnc2C)cc1)C(C)(C)C)c1cc(OC)c(OC)c(OC)c1 (stereo not drawn) [dTAG^V-1-NEG]				0.9945 and 0.95 and 1.001 and 0.9766 and 1.051 and 1.053 and 1.003 and 0.9709	5.114 and 5.468 and 5.612 and 5.24 and 5.293 and 5.6444 and 5.751 and 5.436	9.983 and 9.4493 and 9.47 and 9.104 and 8.952 and 10.1487 and 8.526 and 9.042	11.0059 and 11.6763 and 12.0315 and 12.3084 and 11.8629 and 11.627 and 12.7076 and 12.9032	0.9369 and 1.039 and 1.049 and 1.03 and 0.9405 and 1.006 and 0.9678 and 1.0315	6.723 and 6.994 and 7.2 and 7.295 and 6.686 and 6.901 and 6.814 and 7.587	15.6789 and 14.8903 and 15.2182 and 14.1831 and 15.4702 and 12.9669 and 13.0283 and 13.2307	17.0897 and 17.8515 and 16.9942 and 16.7495 and 17.7706 and 16.0177 and 15.7257 and 18.5474	absent		
CC[C@H](C(=O)N1CCCC[C@H]1C(=O)O[C@H](CCc1ccc(OC)c(OC)c1)c1ccccc1OCC(=O)NCCCCCCOc1cccc2c1C(=O)N(C1CCC(=O)NC1=O)C2=O)c1cc(OC)c(OC)c(OC)c1 (stereo partly drawn) [dTAG-13]			effectively degraded											
